Source: patent US11439646B2, “Anti-proliferative agents for treating PAH” (Pfizer Inc., priority 2016, dated 2022)
pIC50: −log10 of the molar value.

Columns and labels:
[1] = test system: Rat MCT-induced PAH Model; assay: Rat MCT-induced PAH model (hemodynamics, histomorphometry, IHC); format: in vivo
Experimental: Rat MCT-induced PAH Model: Male Sprague-Dawley rats (Charles River Laboratories) (260-280 g; vehicle control group, n=6; all other groups, n=15) received MCT (50 mg/kg, SC; 1 ml/kg BVV) dissolved in vehicle (33.3% 1 N HCl, 14.8% 1 N NaOH, 52.2% diH2O) or vehicle alone on day 0. Sildenafil (50 mg/kg/dose; BID) was administered (5 ml/kg, PO) either prophylactically from days 0-28 or therapeutically from days 14-28. Palbociclib (100 mg/kg; QD) was administered therapeutically (days 14-28). Both sildenafil and palbociclib were resuspended in vehicle (0.5% methylcellulose) and administered orally (5 ml/kg). On day 28, animals were anesthetized via isoflurane, hemodynamic parameters were evaluated, and tissues harvested after euthanasia.
Hemodynamic measurements—monocrotaline (MCT) study: On day 28, animals were anesthetized via 2% isofluorane in positive pressure ventilator. Pulmonary hemodynamics were measured using a pre-calibrated pressure transducer in isoflurane positive-pressure ventilated animals. Steady-state pulmonary and systemic arterial pressures were measured using a Millar Solid State Mikro-tip catheter (Millar Instruments, Houston, Tex.) introduced to the pulmonary arterial trunk at the level of the aortic arch via the right carodid artery. Hemodynamic values were automatically calculated by the physiological data acquisition system, ADI Chart (ADI Instruments, Colorado Springs, Colo.) (Plato BioPharma).
Measurement of RV hypertrophy. After collection of the heart at necropsy, the atria and great vessels were removed. The RV was separated from the LV and S. The wet weights of the RV and LV+S were measured to calculate the Fulton Index.
Tissue preparation. Under anesthesia, the animals were exsanguinated, and the pulmonary circulation flushed with oxygenated (animals from Example 3 [MCT]) or heparizined (animals from Example 4 [Su5416/Hx]) saline. Trachea, lungs, and heart were removed intact from thoracic cavity and placed in ice-cold saline. Right lung lobes were removed, weighed, and immediately flash frozen in liquid nitrogen. A 10 mL syringe filled with fixative (10% NBF) with attached blunt tip needle (20 g) was used to inflate the left lung lobe and the airway was tied off to keep it consistently expanded. The left lung was then immersion fixed in 10% NBF for 48 hrs and then transferred to 70% EtOH for ≤5 days.
Histomorphometric analysis. Three, 3-5 μm thick, transverse sections of the left lung lobe were used for histomorphometric analysis. Overall disease severity scores were determined by light microscopic evaluation of hematoxylin and eosin (H&E)-stained lung sections by a board-certified veterinary pathologist. Scores ranged from 0 (absent), 1 (minimal), 2 (mild), 3 (moderate), 4 (marked) to 5 (severe) and were assigned according to the approximate percentage of the tissue affected by the tissue changes (inflammatory, degenerative, vascular and/or proliferative) characteristic of the PAH model. Average vessel wall thickness was evaluated using lung sections prepared with a modified Verhoeff-van Gieson elastin stain. Image analysis was performed using random field sampling (Visiopharm newCAST) of 10% of tissue area with observer-assisted identification of intra-acinar and pre-acinar vessels and application of a nucleator probe to measure vessel wall thickness. Fully muscularized intra-acinar vessel density was evaluated in a similar manner using dual αSMA/Ki67 IHC-stained sections and observer-assisted counting of ≥70% muscularized (i.e. SMA^+), transversely sectioned, ≤50 μm external diameter, intra-acinar vessels with an identifiable lumen. Vessel-associated Ki67^+ and pRb^+ cells were counted in αSMA/Ki67 IHC-and CD31/pRb IHC-stained lung sections, respectively, using random field sampling of 10% of tissue area and observer-assisted identification of Ki67^+ or pRb^+ cells associated with the walls (i.e. in the intima or media) of vessels 100 μm external diameter.
Immunohistochemistry. […]

human primary PAAFs = assay: BrdU cell proliferation assay, human primary PAAFs; format: cell-based; details: serum, average of 3, FIG. 1c, read-out: IC50, serum-induced proliferation of human primary PAAFs
Experimental: Cell proliferation assay. Primary PASMCs and PAAFs from normal human subjects (ScienCell Research Laboratories, San Diego, Calif., USA) and rat primary PASMCs (Cell Applications, San Diego, Calif., USA) were plated in CellBIND® 96-well plates in Dulbecco's modification of Eagle's medium (DMEM) containing 5% fetal bovine serum (FBS), and serum-starved for 24 h in DMEM containing 0.1% FBS. Cells were first pre-incubated with different concentrations of palbociclib (in triplicates) for 30 minutes, and then 30 ng/ml PDGF-BB or 5% FBS was added to stimulate cell proliferation. Cells were maintained for 48 h before the proliferation rate was evaluated using the Cell Proliferation ELISA BrdU (bromodeoxyuridine) Luminescence Kit (Roche Diagnostics, Mannheim, Germany). BrdU was added to the medium 16 h before the quantification of BrdU incorporation. This procedure was use to generate data as presented in at least FIGS. 1a, 1b, 1c, and 1d. IC50 values were calculated for any given inhibitor by determining the concentration of compound needed to inhibit 50% of the response applied to the system. IC50 values were derived from the four parameter logistic equation which was fit to the compound concentration response data.

rPASMC = assay: EdU cell proliferation assay, rPASMC; format: cell-based; details: Rattus norvegicus, 5% FBS, N = 6, FIG. 1g, read-out: rPASMC IC50 (nM), inhibition of proliferation
Experimental: (§1) Alternatively, rather than using BrdU, EdU (5-ethynyl-2′-deoxyuridine) can be used. Cells were first pre-incubated with different concentrations of the CDK inhibitor for 30 minutes, and then 5% FBS was added to stimulate cell proliferation. Cells were maintained for 24 h before the proliferation rate was evaluated using EDU Click-iT EdU Alexa Fluor® 647 HCS Assay (Thermofisher Scientific, USA). EdU was added to the medium 16 h before the quantification of EdU incorporation. Proliferation was quantified by scanning the 96-well plates using automated high content imaging platform equipped with appropriate fluorescence microscopic filters for DAPI (4′,6-Diamidino-2-Phenylindole) or Hoechst stain and Cyanine5 dyes as part of the Click-iT assay. Proliferating EdU positive cells detected at Cyanine5 were quantified and normalized to total cell number per well where the total cell number per cell was identified by DAPI or Hoechst signal. The % effect was then calculated:
(§2) The average (avg) amount (amt) of proliferating cells per concentration of CDK inhibitor with FBS present.
(§3) The minimum amount of proliferation (min amt of prolif'n) is based on cell numbers in the wells where FBS is not added and no CDK inhibitor is present.
(§4) The maximum amount of proliferation (max amt of prolif'n) is based on cell numbers in the wells where FBS is added and no CDK inhibitor is present.

hPAAF = assay: EdU cell proliferation assay, hPAAF; format: cell-based; details: Homo sapiens, 5% FBS, N = 6, FIG. 1f, read-out: hPAAF IC50 (nM), inhibition of proliferation
Experimental: as §1, §2, §3, §4

[2] = day 14-28, score scale 0-5, FIG. 3g

For CC(=O)c1c(C)c2cnc(Nc3ccc(N4CCNCC4)cn3)nc2n(C2CCCC2)c1=O [Palbociclib, 6-acetyl-8-cyclopentyl-5-methyl-2-{[5-(piperazin-1-yl)pyridin-2yl]amino}pyrido[2,3-d]pyrimidin-7(8H)-one], the “structural changes in the pulmonary vasculature (histomorphometry)” value ([1]; FIG. 3f) was “dramatically improved and in some cases fully normalized”, the “vessel-associated Ki67+ proliferating cells (IHC, lung)” value ([1]; FIG. 5c) was “dramatically decreased to control levels” and the “vessel-associated phosphoRb+ cells (IHC, lung)” value ([1]; FIG. 5d) was “dramatically decreased to control levels”. The “density of fully muscularized intra-acinar vessels (αSMA staining)” value ([1]; day 14-28, FIG. 3e) was “greater reduction”, the “average vessel wall thickness (elastin staining), intra-acinar and pre-acinar pulmonary arteries, relative to vehicle/MCT group” value ([1]; day 14-28, FIG. 3d) was 0.58 x MCT and the “disease severity scores, mean” value [1, 2] was 1. For the same compound, the “disease severity scores, range” value [1, 2] was 0-2, the “hemodynamic and physiologic effects” value ([1]; palbociclib 100 mg/kg/day PO QD, therapeutic day 14-28, versus sildenafil day 0-28) was “not only matched but exceeded the positive hemodynamic and physiologic effects of sildenafil when dosed prophylactically” and the pIC50 (human primary PAAFs) was 7.67. For the same compound, the IC50 (rPASMC) was 19 nM and the IC50 (hPAAF) was 0.4 nM.
